Laboratory results published in patent US20150087722A1, “TREATMENT FOR BREAST TUMOR CELL METASTASIS” (China Medical University, priority 2012, published 2015).

Assays:
[1] = test system: MMP-2, MMP-9, uPA, uPAR, TIMP-1, TIMP-2, PAI-1 in breast tumor cells; assay: western blotting of metastasis-related proteins; type: cell-based, human; details: 0.5, 1 and 2 μM, 24 h, with dose increasing
Experimental: The steps of western blotting include: washing cells with PBS twice at 4° C.; adding a lysis buffer and rubbing the cells by a rubbr policeman so as to lyse cells; putting the lysed cell solution into a 1.5 ml microcentrifuge tube and shaking for 1 min; centrifuging at 12000 rpm for 10 min and taking the supernatant; measuring concentration of the protein through a Bio-Rad protein assay kit; and storing the remained extracted protein solution at −70° C.; taking 100 μg protein solution and adding a SDS/protein loading buffer having the same volume, where the SDS/protein loading buffer has a concentration two times larger than the protein solution; boiling the mixture of the protein solution and the SDS/protein loading buffer at 100° C. for 10 min; cooling and loading the protein samples in each hole of gel; adjusting the voltage to 100 V and running the protein samples on the gel until the tracking dye in the sample buffer reaches the bottom of the gel; and subsequently transferring the protein from the gel using electrophoresis. […] Then luminescence image equipment was used, where the PVDF was placed onto a black metal plate by a plastic pincer and the face including protein was upwards, a 1:1 mixed Chemiluminesent Substrate was added into the membrane and the exposure time depends on the fluorescence intensity of antibodies. […]

[2] = test system: cells stimulated by 10 ng/mL TNF-α; assay: wound scratching assay of cells stimulated by TNF-α; type: cell-based; details: 10 and 20 μM, 24 h
Experimental: In the wound scratching assay for observing cell migration, the cells MDA-MB-231 (3×10^5) were planted in a 12-well plate, and the next day the cells were washed with PBS twice. The original culture medium then was replaced by 1% FBS cell culture medium. The next day a space was scratched at the bottom of the well. The cell culture medium was removed and the cells were washed with PBS twice. 1% FBS cell culture medium and the compound II of different concentrations were added and photographs were taken after 0, 12, 24 and 36 h so as to observe migration of cells. After the reaction, the cells were fixed for 30 min using 75% ice alcohol. After the alcohol was completely volatilized, the cells were stained with Giemsa Stain. The migration number of cells was counted in three random fields (200×) under the microscope (Lin et al., 2008). […] After the breast tumor cells were treated for 0, 12, 24 and 36 h, the quantitative result of effect of the compound II on metastasis of breast tumor cells MDA-MD-231 was observed, and the data results were represented by mean±SD values, where n=3. FIG. 19 illustrates the effect of the compound II in different doses on migration of cells stimulated by 10 ng/mL TNF-α and detected by the wound scratching assay, where the cells were observed under a microscope. […]

[3] = test system: Her-2/neu, p-Tyrosine, PI3K and Akt in breast tumor cells MDA-MB-453; assay: western blotting of Her-2/neu-related proteins; type: cell-based, human
Experimental: The steps of western blotting include: washing cells with PBS twice at 4° C.; adding a lysis buffer and rubbing the cells by a rubbr policeman so as to lyse cells; putting the lysed cell solution into a 1.5 ml microcentrifuge tube and shaking for 1 min; centrifuging at 12000 rpm for 10 min and taking the supernatant; measuring concentration of the protein through a Bio-Rad protein assay kit; and storing the remained extracted protein solution at −70° C.; taking 100 μg protein solution and adding a SDS/protein loading buffer having the same volume, where the SDS/protein loading buffer has a concentration two times larger than the protein solution; boiling the mixture of the protein solution and the SDS/protein loading buffer at 100° C. for 10 min; cooling and loading the protein samples in each hole of gel; adjusting the voltage to 100 V and running the protein samples on the gel until the tracking dye in the sample buffer reaches the bottom of the gel; and subsequently transferring the protein from the gel using electrophoresis. A PVDF membrane was soaked in methanol until the paper was totally wet. The paper was arranged in a transfer tank placed in a 4° C. ice box, and the protein transfer was performed at a current of […] for 4 h. The PVDF membrane was then taken out, placed in a PBS blocking solution including 1% BSA and shaken for 2 h. Then the PVDF membrane was placed in a blocking solution including a primary antibody and slowly shaken at 100 rpm for 1 h at the room temperature. […] Then luminescence image equipment was used, where the PVDF was placed onto a black metal plate by a plastic pincer and the face including protein was upwards, a 1:1 mixed Chemiluminesent Substrate was added into the membrane and the exposure time depends on the fluorescence intensity of antibodies. […] FIG. 22 illustrates expression results of Her-2/neu-related proteins used for facilitating survival of tumor cells when compounds of formula (I) in different doses were added, which were detected by the western blotting. […]

## COC1=C(OC)C(=O)C(C)=C(C)C1=O [compound II]
[1]
  expression amount of TIMP-1, TIMP-2 and PAI-1: increased
  expression of MMP-2, MMP-9, uPA and uPAR: inhibited
[2]
  cell migration: not obvious
[3]; 40 μM
  expression of Her-2/neu and p-Tyrosine: totally inhibited
[3]; 10-60 μM, with increasing concentration
  expression amount of p-Tyrosine activated by Her-2/neu: significantly decreased
[3]; high concentration
  protein expression of PI3K and Akt: inhibited
